Read-outs that look alike come from different tables or passages of the source.
Experiments:
CB1 = system: CB1; parameters: method as in PMID 23236415; conditions: previously demonstrated ref 31; cited from earlier work
[1] = Pharmacokinetics: SBFI26 levels in plasma and brain; type: in vivo; conditions: mouse, 20 mg/kg, i.p.; for half-life: ip
Method: Mice were injected with SBFI26 (20 mg/kg, i.p.) and were subsequently rapidly euthanized by decapitation at the indicated time points. The brain was rapidly removed and submerged in liquid nitrogen while the blood was collected into a K2-EDTA collection tube (Fisher). Plasma was isolated by centrifugation of the blood and 50 μl of the plasma was combined with 150 μl acetonitrile and centrifuged to remove the resulting protein pellet. Subsequently, 50 μl of water was added to 50 μl of the supernatant and 10 μl was injected for analysis into a Thermo TSQ Quantum Access Triple Quadrupole mass spectrometer (ThermoFisher). LC separation was achieved on a Luna C18 (150×2 mm) column. Mobile phase A consisted of 100% H20 while mobile phase B was composed of 100% acetonitrile. The flow rate was 200 μl/min. A linear gradient was used and started at 50% B for 2 min, then ramped to 100% B in 8 min., with a 2 min hold at 100% B. The system was then equilibrated at 50% B for a cycle time of 20 min. The mass spectrometer was operated in the negative ion mode with the high voltage set at −3.5 kV. The sheath pressure was 20 and the capillary was set to 270 °C. Multiple reaction monitoring (MRM) was used with the transition m/z 421 to 277 at 29 eV as the quantitation channel, while m/z 421 to 205 at 17 eV was employed as a conformation channel. SBFI26 quantification was performed using an external calibration curve.

rats subjected to CCI = assay: Rat neuropathic pain model (chronic constriction injury of the sciatic nerve); type: in vivo; conditions: 20 mg/kg i.p.
From the text: Male Fisher 344 rats were habituated and pre-injury evoked responses were obtained. The Hargreaves test was used to assess thermal hyperalgesia. Briefly, plexiglass enclosures were set atop a plexiglass platform and infrared source set at 50% power located under the platform was used as the heat stimulus (Ugo Basile). A 200 mW, 535 nm diode laser was mounted in an adjustable stand placed beneath the plexiglass platform, and was used as an alternative heat stimulus for some of the animals in this study. The latency time to hind paw lift during heating of the plantar surface was recorded. Five recordings were obtained on each hind paw with at least 2 min rest between measurements. The maximum time for exposure to the infrared or diode laser source was 30.5 s to avoid any possible tissue injury. For mechanical threshold measurements, the animal enclosures rested on a screen with mesh of 0.5 cm spacing. Following acclimation, an electronic von Frey Anesthesiometer (IITC Life Sciences) was applied with increasing pressure to the plantar surface of the hind paw until the animals lifted the hind paw. The number of grams of force applied by the probe to induce withdrawal was recorded. Five recordings were obtained on each hind paw with at least 3 min between measurements. For CCI surgeries, our procedure closely followed that reported previously. Briefly, each animal received an i.p. injection of ketamine/xylazine (75 mg/kg and 10 mg/kg, respectively). The hind leg was surgically prepped and the anesthetized animal placed prone on an sterile towel over a heating pad. The temperature was monitored rectally. A skin incision was made mid-thigh with a medium curved scalpel and then scissors were used to expose the sciatic nerve. Approximately 1 cm of the main trunk proximal to the trifuraction was isolated and 4 strands of 4-0 chromic gut were tied around the nerve ∼ 1 mm apart under magnification. In a modification of the original method, a 2-0 prolene strand was placed between the nerve and the gut to which the suture was tightened. The prolene strand was then removed. This prevented over tightening and reduced subsequent motor paralysis. The muscle layers were then reopposed and sutured, and surgical staples were used to close the skin. On post-injury days 7 through 10, heat and mechanical measurements were obained for the ipsilateral hindpaw of each CCI animal. Immediately following the post-injury measurements, animals were randomized and received i.p. injections of vehicle or 20 mg/kg SBI26 (DMSO:cremophor:sterile saline 1∶1∶2 by volume). Up to 0.8 ml of drug or vehicle was injected. The observer was blinded as to administration of drug or vehicle. Thermal and mechanical measurements were performed at 1 and 4 h post-injection. Data were normalized to pre-injury baseline measurements for each animal.

FAAH = target: T1, FAAH (Mus musculus, UniProt O08914); assay: AEA hydrolysis by brain and liver homogenates after injection of inhibitor; type: biochemical; conditions: mouse brain and liver homogenates harvested 60 min after 20 mg/kg, i.p.; 30 μM [14C]AEA
T1 construct: from tissue; host or cells: mouse brain and liver homogenates
T1 sequence (O08914 1-579): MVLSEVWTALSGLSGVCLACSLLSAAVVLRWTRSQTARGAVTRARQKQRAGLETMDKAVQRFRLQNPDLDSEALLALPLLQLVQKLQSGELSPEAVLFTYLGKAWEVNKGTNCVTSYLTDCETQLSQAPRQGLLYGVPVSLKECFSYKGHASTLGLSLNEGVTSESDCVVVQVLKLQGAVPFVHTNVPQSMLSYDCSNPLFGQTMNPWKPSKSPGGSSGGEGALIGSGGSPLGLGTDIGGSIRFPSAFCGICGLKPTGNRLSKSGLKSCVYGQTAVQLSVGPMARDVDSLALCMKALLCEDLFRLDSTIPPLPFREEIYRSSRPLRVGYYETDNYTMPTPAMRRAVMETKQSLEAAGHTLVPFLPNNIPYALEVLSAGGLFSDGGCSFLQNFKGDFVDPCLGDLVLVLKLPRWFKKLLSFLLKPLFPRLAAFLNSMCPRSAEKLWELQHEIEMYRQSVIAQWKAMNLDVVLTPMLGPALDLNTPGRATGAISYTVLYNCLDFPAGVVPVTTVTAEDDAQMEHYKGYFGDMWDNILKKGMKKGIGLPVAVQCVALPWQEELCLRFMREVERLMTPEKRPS
Method: AEA and 2-OG hydrolysis was determined using modified protocols to those described previously, [35]. Mice were injected with inhibitors (20 mg/kg, i.p.) and the brains and livers were harvested 60 min later. The tissue homogenates were subsequently incubated with 30 μM [^14C]AEA or 10 μM [^3H]2-OG for 30 min. Reactions were stopped with two volumes of chloroform:methanol (1∶1) and the methanol phase was counted using a Beckman LS6500 scintillation counter.

FABP3 = FABP3 (Homo sapiens, UniProt P05413); assay: NBD-stearate fluorescence displacement binding
Sequence of FABP3 (P05413 whole entry, species assumed): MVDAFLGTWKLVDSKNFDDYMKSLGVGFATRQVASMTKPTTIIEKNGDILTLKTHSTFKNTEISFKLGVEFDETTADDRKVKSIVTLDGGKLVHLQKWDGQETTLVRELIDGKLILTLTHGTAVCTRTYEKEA
Method: Inhibitory constant (Ki) values were elucidated utilizing NBD-stearate fluorescence displacement as described previously [9], [31]. The tests were performed in 96-well plates containing inhibitors (0.1 – 50.0 μM), FABP, and NBD-stearate. Fluorescence intensity was measured with a FLUOstar OPTIMA spectrofluorometer with excitation and emission wavelengths of 460 and 544 nm, respectively.

[2] = system: locomotor activity in mice; assay: Locomotor activity; type: in vivo, mouse; conditions: 20 mg/kg, i.p., measured 90 min after administration
Method: […] Locomotor activity was recorded for 5 min by a video camera suspended above the chamber and subsequently scored by an observer blinded to the treatment conditions. A grid crossing was scored when both hind legs of the animal crossed the border of each grid square.

For `O=C(O)C1C(c2ccccc2)C(C(=O)Oc2cccc3ccccc23)C1c1ccccc1` (stereo not drawn) [SBFI26, alpha-2,4-diphenylcyclobutane-1,3-dicarboxylic acid mono-1-naphthyl ester], the “Activation of CB1” value (CB1) is given as “does not activate”, the half-life ([1]; brain, read-out: Brain half-life (converted)) is given as about 3 h and the “Brain levels relative to plasma levels” value [1] is given as “lower”. The “Time of peak brain level” value ([1]; brain) was “within one hour”, the “Time of peak plasma level” value ([1]; plasma) was “within one hour” and the “Time by which levels return to baseline” value ([1]; plasma and brain) was at most 24 h. The half-life ([1]; plasma, read-out: Plasma half-life (converted)) was about 3 h, the “Persistence of the effect on thermal hyperalgesia in CCI rats” value (rats subjected to CCI) was “up to 4 hrs” and the “Effect on mechanical thresholds in CCI rats” value (rats subjected to CCI; 1 and 4 h) was “Neither compound altered”. For the same compound, the “Effect on thermal hyperalgesia in CCI rats” value (rats subjected to CCI; measured 1 and 4 h post-injection) was “completely reversed”, the “Inhibition of AEA hydrolysis” value (FAAH) was “did not inhibit” and the Ki (FABP3) was 3.9 ± 0.7 µM. For the same compound, the Locomotor activity [2] was “does not alter”.
